In patent publication US9549921B2, “Heterocyclic compounds and methods of use thereof for the treatment of hepatitis C” (priority 2014, dated 2017) one finds IC50 data, which are given here for 21 molecules.

The test system of experiment [1] is HCV replicon genotype 1a. The experiment in a line: HCV replicon assay, genotype 1a (cell ELISA for NS3/4A). Format: cell-based, hepatitis C virus. Conditions: for IC50: Hepatitis C virus, 96 h, read-out: 1a IC50 (nM), HCV genotype 1a replicon cells, 96 hours incubation, NS3/4A ELISA readout, % of DMSO control. The method in brief:
(§1)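 Readout is NS3/4A protein level from an antibody-based cell ELISA, serving as an indirect measure of replicon RNA; IC50 fitted with a four-parameter function relative to DMSO control. Replicon cells, kept under G418 beforehand, were plated with serial compound dilutions minus G418 for 96 hours.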

Experiment [2] relates to HCV replicon genotype 1b. In words: HCV replicon assay, genotype 1b (cell ELISA for NS3/4A). Format: cell-based, hepatitis C virus. Conditions: for IC50: Hepatitis C virus, 96 h, read-out: 1b IC50 (nM), HCV genotype 1b replicon cells, 96 hours incubation, NS3/4A ELISA readout, % of DMSO control. An outline of the steps: as §1

pIC50: −log10 of the molar value. Where two headings read alike, the source gives them in different places.

Consider `CNC(=O)c1c(-c2ccc(F)cc2)oc2cc(N(C)S(C)(=O)=O)c([C@@H]3CCCN(C(=O)c4cc5cccnc5[nH]4)C3)cc12` (stereo in doubt) [Example 66, 2-(4-fluorophenyl)-N-methyl-6-[methyl(methylsulfonyl)amino]-5-[1-(1H-pyrrolo[2,3-b]pyridin-2-ylcarbonyl)piperidin-3-yl]-1-benzofuran-3-carboxamide], for which the IC50 in experiment [1] turned out to be 92.6 nM; in experiment [2], 21.2 nM.
The matching figures for `CNC(=O)c1c(-c2ccc(F)cc2)oc2cc(N(C)S(C)(=O)=O)c([C@@H]3CCCN(C(=O)Cc4ccc(F)cn4)C3)cc12` (stereo in doubt) [Example 70, 2-(4-fluorophenyl)-5-{1-[(5-fluoropyridin-2-yl)acetyl]piperidin-3-yl}-N-methyl-6-[methyl(methylsulfonyl)amino]-1-benzofuran-3-carboxamide]: 207 nM and 67.9 nM.
Consider `CNC(=O)c1c(-c2ccc(F)cc2)oc2cc(N(C)S(C)(=O)=O)c(C3CC(c4nc5c(F)cccc5o4)CN(C)C3)cc12` (stereo not drawn) [Example 1, 5-(5-(4-fluorobenzo[d]oxazol-2-yl)-1-methylpiperidin-3-yl)-2-(4-fluorophenyl)-N-methyl-6-(N-methylmethylsulfonamido)benzofuran-3-carboxamide], for which the IC50 in experiment [1] turned out to be 56.9 nM; in experiment [2] it was 34.3 nM.
The matching figures for `CNC(=O)c1c(-c2ccc(F)cc2)oc2cc(N(C)S(C)(=O)=O)c([C@@H]3CCCN(S(=O)(=O)c4cc5cccc(F)c5[nH]4)C3)cc12` [Example 2, (S)-5-(1-((7-fluoro-1H-indol-2-yl)sulfonyl)piperidin-3-yl)-2-(4-fluorophenyl)-N-methyl-6-(N-methylmethylsulfonamido)benzofuran-3-carboxamide]: 84.1 nM and 41 nM.
As to `CNC(=O)c1c(-c2ccc(F)cc2)oc2cc(N(C)S(C)(=O)=O)c([C@H]3CCCN(S(=O)(=O)c4cc5cccc(F)c5[nH]4)C3)cc12` [Example 3, (R)-5-(1-((7-fluoro-1H-indol-2-yl)sulfonyl)piperidin-3-yl)-2-(4-fluorophenyl)-N-methyl-6-(N-methylmethylsulfonamido)benzofuran-3-carboxamide], the IC50 in experiment [1] is 148 nM; in experiment [2], 109 nM.
The matching figures for `CNC(=O)c1c(-c2ccc(F)cc2)oc2cc(N(C)S(C)(=O)=O)c([C@H]3CCCN(c4nc5c(C#N)cccc5o4)C3)cc12` [Example 4, (R)-5-(1-(4-cyanobenzo[d]oxazol-2-yl)piperidin-3-yl)-2-(4-fluorophenyl)-N-methyl-6-(N-methylmethylsulfonamido)benzofuran-3-carboxamide]: 7.03 nM and 6.53 nM.
In the same order, the values of `CNC(=O)c1c(-c2ccc(F)cc2)oc2cc(N(C)S(C)(=O)=O)c([C@@H]3CCCN(c4nc5c(C#N)cccc5o4)C3)cc12` [Example 5, (S)-5-(1-(4-cyanobenzo[d]oxazol-2-yl)piperidin-3-yl)-2-(4-fluorophenyl)-N-methyl-6-(N-methylmethylsulfonamido)benzofuran-3-carboxamide] are 53.7 nM and 19.3 nM.
For `CNC(=O)c1c(-c2ccc(F)cc2)oc2cc(N(C)S(C)(=O)=O)c(C3C[C@@H](c4nc5c(F)cccc5o4)N(C)C3)cc12` (stereo partly drawn) [Example 12, 5-((5S)-5-(4-fluorobenzo[d]oxazol-2-yl)-1-methylpyrrolidin-3-yl)-2-(4-fluorophenyl)-N-methyl-6-(N-methylmethylsulfonamido)benzofuran-3-carboxamide], the IC50 was determined as 92.8 nM in experiment [1] and 37.8 nM in experiment [2].
In the same order, the values of `CNC(=O)c1c(-c2ccc(F)cc2)oc2cc(N(C)S(C)(=O)=O)c(C3CNCC(c4cc5c(F)cccc5[nH]4)N3)cc12` (stereo not drawn) [Example 13, 5-(6-(4-fluoro-1H-indol-2-yl)piperazin-2-yl)-2-(4-fluorophenyl)-N-methyl-6-(N-methylmethylsulfonamido)benzofuran-3-carboxamide] are 140 nM and 165 nM.
With `CNC(=O)c1c(-c2ccc(F)cc2)oc2cc(N(C)S(C)(=O)=O)c(C3CCN(C)C(c4cc5c(F)cccc5[nH]4)C3)cc12` (stereo not drawn) [Example 16, 5-(2-(4-fluoro-1H-indol-2-yl)-1-methylpiperidin-4-yl)-2-(4-fluorophenyl)-N-methyl-6-(N-methylmethylsulfonamido)benzofuran-3-carboxamide], the IC50 in experiment [1] was found to be 333 nM; in experiment [2], 106 nM.
On to `CNC(=O)c1c(-c2ccc(F)cc2)oc2cc(N(C)S(C)(=O)=O)c([C@H]3CCCN(C(=O)c4cc5cccc(F)c5[nH]4)C3)cc12` [Example 31, (R)-5-(1-(7-fluoro-1H-indole-2-carbonyl)piperidin-3-yl)-2-(4-fluorophenyl)-N-methyl-6-(N-methylmethylsulfonamido)benzofuran-3-carboxamide], for which the IC50 is 17.1 nM in experiment [1] and 9.38 nM in experiment [2].
The matching figures for `CNC(=O)c1c(-c2ccc(F)cc2)oc2cc(N(C)S(C)(=O)=O)c([C@@H]3CCCN(C(=O)c4cc5cccc(F)c5[nH]4)C3)cc12` [Example 32, (S)-5-(1-(7-fluoro-1H-indole-2-carbonyl)piperidin-3-yl)-2-(4-fluorophenyl)-N-methyl-6-(N-methylmethylsulfonamido)benzofuran-3-carboxamide]: 53.1 nM and 19.2 nM.
Turning to `CCn1c(C(=O)N2CCC[C@@H](c3cc4c(C(=O)NC)c(-c5ccc(F)cc5)oc4cc3N(C)S(C)(=O)=O)C2)cc2c(F)cccc21` [Example 33, (S)-5-(1-(1-ethyl-4-fluoro-1H-indole-2-carbonyl)piperidin-3-yl)-2-(4-fluorophenyl)-N-methyl-6-(N-methylmethylsulfonamido)benzofuran-3-carboxamide], the IC50 in experiment [1] turned out to be 130 nM; in experiment [2], 196 nM.
Take `CCn1c(C(=O)N2CCC[C@H](c3cc4c(C(=O)NC)c(-c5ccc(F)cc5)oc4cc3N(C)S(C)(=O)=O)C2)cc2c(F)cccc21` [Example 34, (R)-5-(1-(1-ethyl-4-fluoro-1H-indole-2-carbonyl)piperidin-3-yl)-2-(4-fluorophenyl)-N-methyl-6-(N-methylmethylsulfonamido)benzofuran-3-carboxamide]: the figures for the IC50 in experiment [1] and in experiment [2] were 84.1 nM and 65.3 nM, respectively.
In the same order, the values of `CNC(=O)c1c(-c2ccc(F)cc2)oc2cc(N(C)S(C)(=O)=O)c([C@@H]3CCCN(C(=O)c4nc5ncccc5[nH]4)C3)cc12` [Example 35, (S)-5-(1-(1H-imidazo[4,5-b]pyridine-2-carbonyl)piperidin-3-yl)-2-(4-fluorophenyl)-N-methyl-6-(N-methylmethylsulfonamido)benzofuran-3-carboxamide] are 71.6 nM and 48.9 nM.
In the same order, the values of `CNC(=O)c1c(-c2ccc(F)cc2)oc2cc(N(C)S(C)(=O)=O)c([C@H]3CCCN(C(=O)c4nc5ncccc5[nH]4)C3)cc12` [Example 36, (R)-5-(1-(1H-imidazo[4,5-b]pyridine-2-carbonyl)piperidin-3-yl)-2-(4-fluorophenyl)-N-methyl-6-(N-methylmethylsulfonamido)benzofuran-3-carboxamide] are 269 nM and 286 nM.
As for `CNC(=O)c1c(-c2ccc(F)cc2)oc2cc(N(C)S(C)(=O)=O)c([C@@H]3CCCN(C(=O)c4[nH]c5c(F)cccc5c4C)C3)cc12` [Example 37, (S)-5-(1-(7-fluoro-3-methyl-1H-indole-2-carbonyl)piperidin-3-yl)-2-(4-fluorophenyl)-N-methyl-6-(N-methylmethylsulfonamido)benzofuran-3-carboxamide], the IC50 in experiment [1] came to 162 nM; in experiment [2] it was 92.8 nM.
In the same order, the values of `CNC(=O)c1c(-c2ccc(F)cc2)oc2cc(N(C)S(C)(=O)=O)c([C@H]3CCCN(C(=O)c4[nH]c5c(F)cccc5c4C)C3)cc12` [Example 38, (R)-5-(1-(7-fluoro-3-methyl-1H-indole-2-carbonyl)piperidin-3-yl)-2-(4-fluorophenyl)-N-methyl-6-(N-methylmethylsulfonamido)benzofuran-3-carboxamide] are 277 nM and 116 nM.
As to `CNC(=O)c1c(-c2ccc(F)cc2)oc2cc(N(C)S(C)(=O)=O)c([C@@H]3CCCN(C(=O)c4cc5cccc(C(F)(F)F)c5[nH]4)C3)cc12` [Example 39, (S)-2-(4-fluorophenyl)-N-methyl-6-(N-methylmethylsulfonamido)-5-(1-(7-(trifluoromethyl)-1H-indole-2-carbonyl)piperidin-3-yl)benzofuran-3-carboxamide], the figures for the IC50 in experiment [1] and in experiment [2] were 268 nM and 36.4 nM, respectively.
The matching figures for `CNC(=O)c1c(-c2ccc(F)cc2)oc2cc(N(C)S(C)(=O)=O)c([C@H]3CCCN(C(=O)c4cc5cccc(C(F)(F)F)c5[nH]4)C3)cc12` [Example 40, (R)-2-(4-fluorophenyl)-N-methyl-6-(N-methylmethylsulfonamido)-5-(1-(7-(trifluoromethyl)-1H-indole-2-carbonyl)piperidin-3-yl)benzofuran-3-carboxamide]: 142 nM and 27.6 nM.
As to `CNC(=O)c1c(-c2ccc(F)cc2)oc2cc(N(C)S(C)(=O)=O)c(C3CCCN(c4nc5cc(F)ccc5o4)C3)cc12` (stereo not drawn) [Example 51], the pIC50 in experiment [1] (HCV genotype 1a replicon cells, 96 hours incubation, NS3/4A ELISA readout, % of DMSO control, read-out: 1a IC50) was 8.30; in experiment [2] (HCV genotype 1b replicon cells, 96 hours incubation, NS3/4A ELISA readout, % of DMSO control, read-out: 1b IC50) it was 8.15.
